From patent US20110306606A1, “NOVEL 2,6-SUBSTITUTED-3-NITROPYRIDINE DERIVATIVE, METHOD FOR PREPARING SAME, AND PHARMACEUTICAL COMPOSITION INCLUDING SAME” (priority 2008, published 2011) come the findings set out here.

For data set [1], the system named is formation of osteoclasts in co-culture of bone marrow cells and osteoblasts. As to the kind of experiment: Osteoclastogenesis inhibition via co-culture system (TRAP staining). The format is cell-based, mice. The note with it: 1 μM compound, 7 days co-culture, TRAP-positive multinucleated osteoclasts vs vehicle control. The essentials: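 Bone marrow cells from male ddY mice were co-cultured with osteoblasts for 7 days in α-MEM/10% FBS with 10^−8 M 1α,25-dihydroxyvitamin D3 and dexamethasone. Compound was present at 1 μM final and refreshed every 2–3 days. TRAP-positive cells with 6–7 nuclei were counted, with % inhibition relative to DMSO vehicle (n=4).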

In data set [2] the test system is Osteoblasts (Calvarial cells). Description: Cytotoxicity test (MTT). The note with it: 1 μM compound, 72 hours, in comparison with vehicle control.
Data set [3] concerns Osteoblasts (Calvarial cells). Description: Alkaline phosphatase (ALP) activity in osteoblasts (Calvarial cells). The format is cell-based, mice. The settings on record: 1 μM compound, 3 days. The method, then:
Differentiation and activity of osteoblasts were indirectly evaluated by measuring an ALP activity having a close relationship with osteogenesis.
Osteoblasts (Calvarial cells) prepared in Experimental Example 1 and MC3T3-E1 cells (available from RIKEN Cell Bank, Japan) were collected in α-MEM supplemented with 10% FBS, followed by cell counting. The cells were dispensed into 24-well cultureware at a density of 2×10^4 cells/well. After culturing of the cells for 24 hours, the culture media were discarded and replaced with fresh media in which test compounds were diluted to a concentration of 1 μM (1 mL/well). In addition, the vehicle control group containing 0.1% DMSO was also treated. […] When the experiment was terminated, the supernatant was removed and the cells were washed three times with cold phosphate buffer at 4°. 0.2% Triton X-100 was added to the washed cells which were then subjected to three cycles of freezing at −70° and thawing at room temperature for the complete lysis of cells. The cell extracts were pooled and centrifuged to collect the cell supernatant which was used for the measurement of ALP activity and proteins. The protein concentration was measured using a BCA assay kit (manufactured by Sigma-Aldrich). For the measurement of ALP activity, p-nitrophenylphosphate was added to the cell supernatant which was then incubated at 37° for 30 minutes, and the reaction was terminated with the addition of 50 μL of 0.2N sodium hydroxide. The standard curve was plotted at the absorbance of 405 nm using p-nitrophenol as a standard material and then the absorbance of test materials thus reacted was measured to determine the production amount of p-nitrophenol.
The ALP activity was calculated by dividing the amount of p-nitrophenol produced from each test material by the protein amount and the reaction time. Therefore, the unit of ALP activity was given in terms of p-nitrophenol/μg protein/min. The results are given in Tables 28-1 and 28-2 where the ALP activity unit of each test material was given in terms of % change through the comparison between the individual test materials and the vehicle control group.

For the compound `CCN(CCO)c1ccc([N+](=O)[O-])c(Nc2ccc(-c3csc(C)n3)cc2)n1` [Compound 141, 2-[4-(2-methylthiazol-4-yl)phenylamino]-6-[(N-ethyl-2-hydroxy)ethylamino]-3-nitropyridine], the “Osteoclastogenesis inhibition (%) 1 μM” value in data set [1] came to 82%. The “Cell viability (%) Calvarial cell” value in data set [2] came to 102%. Further, the “ALP activity (1 μM, % of Control) Calvarial cell” value in data set [3] is recorded as 129 % of Control.

In the case of `CC(C)CNc1ccc([N+](=O)[O-])c(Nc2ccc(N3CCOCC3)c(F)c2)n1` [Compound 193, 2-[(3-fluoro-4-morpholino)phenylamino]-6-(isobutylamino)-3-nitropyridine], the “Osteoclastogenesis inhibition (%) 1 μM” value in data set [1] worked out at 81%. Also, in data set [2], the “Cell viability (%) Calvarial cell” value is 98%. Moreover, in data set [3], the “ALP activity (1 μM, % of Control) Calvarial cell” value is listed as 114 % of Control.

In the case of `CC(C)(C)Nc1ccc([N+](=O)[O-])c(Nc2ccc(N3CCOCC3)c(F)c2)n1` [Compound 199, 2-[(3-fluoro-4-morpholino)phenylamino]-6-(t-butylamino)-3-nitropyridine], in data set [1], the “Osteoclastogenesis inhibition (%) 1 μM” value was 67%. In addition, the “Cell viability (%) Calvarial cell” value in data set [2] was determined as 118%. In addition, in data set [3], the “ALP activity (1 μM, % of Control) Calvarial cell” value was 118 % of Control.

As for `O=[N+]([O-])c1ccc(N2CCNCC2)nc1Nc1ccc(N2CCOCC2)c(F)c1` [Compound 201, 2-[(3-fluoro-4-morpholino)phenylamino]-6-(piperazin-1-yl)-3-nitropyridine], the “Osteoclastogenesis inhibition (%) 1 μM” value in data set [1] was 86%. Besides, the “Cell viability (%) Calvarial cell” value in data set [2] was 95%. In data set [3], the “ALP activity (1 μM, % of Control) Calvarial cell” value was 118 % of Control.

Take `O=[N+]([O-])c1ccc(N2CCNCC2)nc1Nc1ccc(N2CCSCC2)c(F)c1` [Compound 213, 2-[(3-fluoro-4-thiomorpholino)phenylamino]-6-(piperazin-1-yl)-3-nitropyridine]: the “Osteoclastogenesis inhibition (%) 1 μM” value in data set [1] was 94%. The “Cell viability (%) Calvarial cell” value in data set [2] is reported as 95%. In addition, the “ALP activity (1 μM, % of Control) Calvarial cell” value in data set [3] is 121 % of Control.

As to `CNc1ccc([N+](=O)[O-])c(Nc2ccc(N3CCNCC3)c(F)c2)n1` [Compound 215, 2-[(3-fluoro-4-piperazino)phenylamino]-6-(methylamino)-3-nitropyridine], the “Osteoclastogenesis inhibition (%) 1 μM” value in data set [1] is given as 91%. In addition, the “Cell viability (%) Calvarial cell” value in data set [2] was 104%. The “ALP activity (1 μM, % of Control) Calvarial cell” value in data set [3] was 125 % of Control.

Consider `CC(C)Nc1ccc([N+](=O)[O-])c(Nc2ccc(N3CCNCC3)c(F)c2)n1` [Compound 216, 2-[(3-fluoro-4-piperazino)phenylamino]-6-(isopropylamino)-3-nitropyridine], for which the “Osteoclastogenesis inhibition (%) 1 μM” value in data set [1] was found to be 93%. Besides, the “Cell viability (%) Calvarial cell” value in data set [2] was 92%. Further, the “ALP activity (1 μM, % of Control) Calvarial cell” value in data set [3] is reported as 112 % of Control.

Take `CC(C)CNc1ccc([N+](=O)[O-])c(Nc2ccc(N3CCNCC3)c(F)c2)n1` [Compound 217, 2-[(3-fluoro-4-piperazino)phenylamino]-6-(isobutylamino)-3-nitropyridine]: the “Osteoclastogenesis inhibition (%) 1 μM” value in data set [1] came out at 94%. Also, the “Cell viability (%) Calvarial cell” value in data set [2] amounted to 92%. The “ALP activity (1 μM, % of Control) Calvarial cell” value in data set [3] was 119 % of Control.

For `CNc1ccc([N+](=O)[O-])c(Nc2ccc(N3CCCCC3)c(F)c2)n1` [Compound 223, 2-[(3-fluoro-4-piperidino)phenylamino]-6-(methylamino)-3-nitropyridine], the “Osteoclastogenesis inhibition (%) 1 μM” value in data set [1] worked out at 82%. In addition, the “Cell viability (%) Calvarial cell” value in data set [2] turned out to be 100%. Moreover, the “ALP activity (1 μM, % of Control) Calvarial cell” value in data set [3] is 247 % of Control.

As for `CC(C)CNc1ccc([N+](=O)[O-])c(Nc2ccc(N3CCCCC3)c(F)c2)n1` [Compound 225, 2-[(3-fluoro-4-piperidino)phenylamino]-6-(isobutylamino)-3-nitropyridine], the “Osteoclastogenesis inhibition (%) 1 μM” value in data set [1] turned out to be 60%. Besides, the “Cell viability (%) Calvarial cell” value in data set [2] was found to be 90%. In data set [3], the “ALP activity (1 μM, % of Control) Calvarial cell” value is 150 % of Control.
